Source: patent US20240049706A1, “COMPOSITIONS AND METHODS FOR CONTROLLING INSECTS” (priority 2020, published 2024)

Tests used:
[1] = Loading (encapsulation) efficacy of essential oils into AgriCell, UV-Vis after ethanol extraction; type: physicochemical; conditions: EO encapsulated into AgriCell; original concentration of EO 200 mg/mL
Method: After […] are purified, the concentrated […] paste or dry lyophilized powder is loaded with EOs. If dry, the […] are first homogenized into a finer powder through mechanical homogenization. A stock solution from each EO is prepared in ethanol at 100 mg/mL-200 mg/mL. Lyophilized […] would then be suspended in a solution with the EO solution at a ratio of 1 g of dry […] to 10 mL of EO solution. Once resuspended, the ethanol is allowed to evaporate overnight, leaving behind EO encapsulated […] in the process. After this overnight period, encapsulated […] are removed from the beaker, and the EO-encapsulated […] powder is mechanically homogenized. This encapsulated product is ready for resuspension in its appropriate medium.

[2] = 7 days, 20 mg/mL
Excerpt: One replicate of each EO per treatment was collected daily and tested for EO content. Results were reported as concentration of EO as function of time for each stability condition.

[3] = 20 mg/mL; for percentage existing / remaining (not damaged) after autoxidation: 168 h; for percentage degraded by autoxidation: 7 days
Excerpt: Results were reported as concentration of EO as function of time for each stability condition.

encapsulation efficacy [1] [%] | percentage of degradation (thermal) [2] [%] | Structure (SMILES) | percentage existing / remaining (not damaged) after autoxidation [3] [%] | percentage degraded by autoxidation [3] [%]
95.5 | 82.7 | C=CCc1ccc(O)c(OC)c1 [free eugenol, Eugenol] | 17.3 | 82.7
91.8 | 79.1 | Cc1ccc(C(C)C)c(O)c1 [free thymol, thymol] | 44.2 | 55.8
